# Measurements taken from patent US5324725A, “7-fused 2-(piperazinoalkyl) indole derivatives, intermediates and compositions thereof” (Kali-Chemie Pharma GmbH, priority 1991, dated 1994).
# Where two headings read alike, the source gives them in different places.
# Assays:
# [1] = system: Passive cutaneous anaphylaxis (P.C.A.); assay: Inhibition of passive cutaneous anaphylaxis (P.C.A.); type: in vivo, rat (Sprague-Dawley); conditions: Rattus norvegicus, 1 h; rats, 2 × 10^-5 mol/kg p.o., one hour before ovalbumin challenge
# Experimental: (§1) 1. Determination of the inhibition of passive cutaneous anaphylaxis (P.C.A.) and of the anaphylactoid cutaneous reaction induced by histamine.
# The P.C.A. reaction was carried out according to the methods described by Goose et al. (J.N. Immunology 16 (1969), 749) and by Martin et al (Arch. Pharmacol. 316 (1981), 186}.
# The IgE-rich ovalbumin antiserum used in the test was obtained from immunized Brown-Norway rats. For immunization, the rats were given an i.p. injection of a mixture of 100 μg of ovalbumin with a Bordetella pertussis suspension (Vaxicoq®, Manufacturer: Institut Merieux, containing 5×10^9 organisms and 1.25 mg of Al(OH)3). After 20 days, the animals received a further i.p. injection of a solution of 10 μg of ovaIbumin in 0.5 ml of physiological saline solution for reimmunisation. After a further four days, the animals were bled, and the blood was centrifuged The antiserum obtained in this way was stored at -20° C. until use.
# (§2) The determination of the inhibition of passive cutaneous anaphylaxis and the anaphylactoid cutaneous reaction induced by histamine was carried out as follows:
# Sprague-Dawley rats having a body weight of 150-180 g were injected intradermally in one flank with 50 μl of a 1:75 dilution of the IgE-rich ovalbumin antiserum in physiological sodium chloride solution for passive sensitization to ovalbumin.
# 24 hours after sensitization a solution of 8.25 mg/kg of ovalbumin and 26.4 mg/kg of a blue dye (Evans' Blue) was administered i.v. to the rats according to Martin et al. to induce passive cutaneous anaphylaxis. The ovalbumin challenge caused a local anaphylactic reaction at the site at which the antiserum had been injected.
# (§3) On the test days, the test substances were dissolved in distilled water which contained 1% by volume of dimethylformamide and 1% by volume of Tween®20 (polyoxyethylene(20) sorbitan monolaurate). One hour before the challenging ovalbumin administration, each animal received 2×10^-5 mol/kg of test substance administered orally in 0.5 ml of solution. A control group received only the solvent for comparison.
# (§4) The oedematous anaphylactic (P.C.A.) and anaphylactoid (histamine-induced) reactions caused by the challenging i.v. ovalbumin injection, which are manifested by oedema formation, swelling and exudation of blue dye, were evaluated 30 minutes after challenge by the i.v. ovalbumin injection. This was done by visual determination of the extent to which the blue dye emerges at the sites of oedema formation. The percentage inhibition of anaphylactic and anaphylactoid reactions caused by the test substances was determined in comparison with the reactions of the control animals not treated with test substance with the aid of comparison scales.
# (§5) The results obtained by the above test methods using compounds of the formula I are shown in the following Table A. The example numbers given for the compounds of formula I relate to the following preparation examples.
# [2] = system: Histamine-induced anaphylactoid reactions; assay: Inhibition of anaphylactoid cutaneous reaction induced by histamine; type: in vivo, rat (Sprague-Dawley); conditions: Rattus norvegicus, 1 h; rats, 2 × 10^-5 mol/kg p.o., one hour before challenge; histamine intradermal
# Experimental: as §1, §2
# To determine the histamine-induced anaphylactoid skin reaction, the animals were injected intradermally in the flank opposite to the antiserum administration with 50 μl of a physiological saline solution containing 0.8 mg/ml of histamine directly before the i.v. injection of the solution containing the ovalbumin and the blue dye.
# as §3, §4, §5
# [3] = system: P.A.F.-induced aggregation of platelets from rabbit blood; assay: Anti-P.A.F. effect in vitro: inhibition of P.A.F.-induced platelet aggregation; type: cell-based, rabbit (New Zealand hybrids); conditions: Oryctolagus cuniculus, Platelet, test substance concentration 10^-5 mol/l
# From the text: 4. Determination of anti-P.A.F. effect in vitro.
# Platelet-activating factor (P.A.F.) is a phospholipid mediator which has several effects. The activation of platelet aggregation leads to the induction of protracted broncho contractions and hyperreactivity of the airways.
# The effects of the test substances on platelet aggregation induced by adding P.A.F. to a platelet suspension obtained from rabbit blood was investigated by the method described by Mikashima et al. (Jap. J. Pharmacol. 44 (1987) 387-391).
# A suspension of platelets originating from rabbit blood was used which contained 4×10^9 platelets/ml in a modified Tyrode buffer solution adjusted to pH 7.4. Tyrode solution is an aqueous solution containing 136.9 mmol of NaCl, 2.68 mmol of KCl, 2.31 mmol of CaCl2, 1.0 mmol of MgCl2, 11.9 mmol of NaHCO3, 1.45 mmol of NaH2 PO4 and 5.55 mmol of glucose per liter. This solution was modified by adding 1.3 mM/l of CaCl2 and 2.5 g/l of gelatin. The platelets were obtained from 10 ml blood samples from each of three rabbits (New Zealand hybrids, body weight 3-4 kg). For this, the blood samples were treated with ethylenediaminetetraacetic acid and washed by the method of Artley et al. (Brit. J. Hamatol. 19 (1970), 7-17). A platelet-rich plasma was then initially separated by centrifugation (20 minutes at 400×g). The platelets were separated from the plasma by centrifuging again for 15 minutes at 1400×g. After centrifuging, the platelets remaining as a sediment were resuspended in a calcium-free Tyrode buffer solution. 0.4 mmol of lysine acetylsalicylate were then added and after 15 minutes the blood platelets were sedimented again. The sediment was resuspended in the abovementioned modified Tyrode buffer solution, and the number of platelets in the resulting suspension was adjusted to the desired content.
# A 40×10^-9 molar P.A.F. solution was used as the reagent. This solution was prepared from a 1.8×10^-3 molar stock solution in chloroform. For this, a 10μl sample of the stock solution was evaporated to dryness and redissolved in 180 μl of the modified Tyrode solution, to which 0.25% of dilapidated bovine serum albumin had been added. 10^-5 molar working solutions were then prepared from this and stored frozen. Samples of these solutions were appropriately diluted for the tests.
# To carry out the tests, 50 μl of the platelet solution and 10 μl of a 40×10^-5 molar solution of the compound to be investigated were added to 330 μl of the modified Tyrode buffer solution with stirring (1000 rpm) in an aggregation tube provided with a small magnetic stirrer. This corresponds to a final test substance concentration of 10^-5 mol/l. After a preincubation time of 90seconds, 10 μl of the P.A.F. preparation were added. The aggregation occurring in the aggregation tubes was measured for 4-5 minutes using a computerized aggregometer.
# The aggregation occurring in the test tubes containing only platelet suspension was rated as 0%. The aggregation occurring in test tubes containing platelet suspension and P.A.F. preparation was rated as 100%. The aggregation which still occurred in the presence of the test substances (i.e. during inhibition of the P.A.F.-induced platelet aggregation increase) was measured, and the resulting aggregation inhibition is calculated from this in %.
# [4] = target: T1, histamine (H1) receptor (Cavia porcellus, UniProt P31389); assay: Antihistamine (H1) effect: inhibition of histamine-induced contractions of isolated guinea-pig ileum in vitro; type: cell-based, guinea-pig (Dunkin Hartley); conditions: histamine 5 × 10^-6 mol/l, test substance 10^-6 mol/l
# T1 construct: isolated smooth muscle of the guinea-pig ileum; from tissue; host or cells: isolated ileum segments of Dunkin Hartley guinea-pigs
# Experimental: 3. Investigation of the antihistamine (H1) effect based on histamine (H1) receptor antagonism in vitro.
# To investigate the histamine (H1) receptor antagonism of the substances, the inhibitory effect thereof on histamine-induced contractions of the smooth musculature of isolated organ was determined in vitro. Isolated strips of organ from the ileum were used. In an organ bath of physiological saline solution, they react to addition of histamine by contracting. Addition of the compounds of the invention decreases this histamine-induced contraction of the smooth musculature of the ileum strips. The extent of decrease of the contraction is an indication of the antihistamine (H1) activity of the compounds. The investigation is carried out analogously to the method originally described by Magnus (Pflugers Arch. 102, 123 (1904)).
# Experimental description of the determination of the inhibitory effect on the contraction induced by a 5×10^-6 molar histamine concentration on isolated smooth muscle of the guinea-pig ileum.
# For the test, 1.5 cm long segments of the ileum from Dunkin Hartley guinea-pigs having a body weight of 300-500 g were employed. Each strip was placed in an organ bath of 10 ml of Krebs-Henseleit physiological saline solution and attached to a customary apparatus for isotonically measuring changes in length of the ileum strip (automated Celaster measuring apparatus) so that the tissue is under a tension of 1 g. The bath was kept at a pH of 7.4 and aerated with a mixture of 5% CO2 and 95% O2. After an equilibration phase, an isotonic contraction of the tissue was produced by adding histamine in a final concentration of 5×10^-6 mol/l and was washed out again after a contact time of 30 seconds. Only those tissues in which three reproducible contractions were obtained at 10 minute intervals were used in the subsequent test. The test substances were then added in a final concentration of 10^-6 mol/l, and after a contact time of 30 seconds histamine was again added up to a concentration of 5×10^-6 mol/l. The contractions which occurred were measured over the course of 30 seconds. The tissue was then washed several times over a period of 10 minutes. A contraction challenge was then induced again by addition of histamine. The contractions which occurred were again measured over 30 seconds. The difference between the amplitude of the contraction obtained by histamine addition alone and the amplitude of the contraction obtained in the presence of the test substance was determined and calculated as % inhibition.
# The inhibitory effects on the contractions induced by histamine 30 seconds after administration of the test substance and on the contractions induced by addition of histamine 10 minutes afterward are given in the table.
# T1 sequence (P31389 whole entry): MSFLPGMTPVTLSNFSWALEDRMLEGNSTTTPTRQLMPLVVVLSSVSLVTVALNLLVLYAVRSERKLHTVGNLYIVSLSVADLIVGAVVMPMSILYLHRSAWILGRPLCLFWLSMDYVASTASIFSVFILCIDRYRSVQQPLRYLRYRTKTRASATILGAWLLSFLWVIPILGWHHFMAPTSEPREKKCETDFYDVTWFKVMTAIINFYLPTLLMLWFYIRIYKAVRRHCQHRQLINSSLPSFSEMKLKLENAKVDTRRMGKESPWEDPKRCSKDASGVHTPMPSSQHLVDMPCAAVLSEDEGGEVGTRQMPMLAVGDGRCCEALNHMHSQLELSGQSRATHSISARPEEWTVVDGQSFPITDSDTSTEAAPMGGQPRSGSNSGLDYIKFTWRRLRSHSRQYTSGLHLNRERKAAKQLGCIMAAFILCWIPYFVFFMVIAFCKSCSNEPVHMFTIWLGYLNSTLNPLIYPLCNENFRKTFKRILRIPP
smiles,measurement,setting,value
Cc1ccnc(N2CCN(CCc3c(-c4ccc(Cl)cc4)n4c5c(cccc35)CCC4)CC2)c1 [Example 46],inhibition in vivo at 20 µmol/kg,[1],35%
same,inhibition in vivo at 20 µmol/kg,[2],25%
same,inhibition at 10 µM,[3],91%
"Cc1ccnc(N2CCN(CCc3c(C)n4c5c(cccc35)CCC4CO)CC2)c1 (stereo not shown) [Example 18, 5,6-Dihydro-4-hydroxymethyl-2-methyl-1-{2-[4-(4-methylpyridin-2-yl)piperazin-1-yl]ethyl}-4H-pyrrolo[3,2,1-ij]-quinoline]",inhibition in vivo at 20 µmol/kg,[1],90%
same,inhibition in vivo at 20 µmol/kg,[2],80%
same,inhibition at 1 µM,"[4]; after 30 sec., read-out: in vitro (H1) receptor antagonism % inhibitory effect on histamine-induced contractions of the Ileum, after 30 sec.",29%
same,inhibition at 1 µM,"[4]; after 10 min. (after washing), read-out: in vitro (H1) receptor antagonism % inhibitory effect on histamine-induced contractions of the Ileum, after 10 min.",72%
